Legend:
[1] = Dynamic vapor sorption (DVS) humidity cycling, solid analysed by XRPD; type: physicochemical; settings: start 50% relative humidity, up to 90%, down to 0%, 10% steps, cycle repeated 3 times
Protocol: (§1) XRPD patterns are obtained using a Bruker D8 Advance equipped with a Cu Kα radiation source (λ=1.54 Å), a 9-position sample holder and a LYNXEYE super speed detector. Samples are placed on zero-background, silicon plate holders for analysis. One skilled in the art would recognize that the ° 2θ values and the relative intensity values are generated by performing a peak search on the measured data and the d-spacing values are calculated by the instrument from the ° 2θ values using Bragg's equation. One skilled in the art would further recognize that the relative intensity for the measured peaks may vary as a result of sample preparation, orientation and instrument used, for example.
In another embodiment, amorphous fedratinib diHCl is prepared by: • a) subjecting Form A of fedratinib diHCl to a dynamic vapor sorption method to yield amorphous fedratinib diHCl, wherein the dynamic vapor sorption method comprises exposing the Form A of fedratinib diHCl to a relative humidity of about 50% and adjusting the relative humidity to between about 0-90% with about a 10% increase or decrease in humidity at each step for 3 cycles.
Form A of fedratinib diHCl is subjected to DVS with initial exposure to 50% relative humidity. The relative humidity is then increased to 90% with a 10% increase in humidity at each step. […]

[2] = Retention of Form A on slurrying in multiple solvents (XRPD); type: physicochemical; settings: ~30 mg in 0.2 mL of each of water, ethanol, MTBE, IPA, IPAc, 3-methyl-1-butanol, toluene, anisole, acetone, THF, MEK, MIBK, DCM, 1,4-dioxane, 2-butanol, 2-methyl THF, isobutyl acetate, tert-butanol, methyl cyclohexane, CPME; slurried about 3 days at 20° C.
Protocol: as §1
In another embodiment, Form A of fedratinib diHCl is retained by producing a slurry. […]

## Cc1cnc(Nc2ccc(OCCN3CCCC3)cc2)nc1Nc1cccc(S(=O)(=O)NC(C)(C)C)c1 [Form A of fedratinib diHCl, N-tert-butyl-3-[[5-methyl-2-[4-(2-pyrrolidin-1-ylethoxy)anilino]pyrimidin-4-yl]amino]benzenesulfonamide]
[1]
  solid form by XRPD after DVS: determined to be amorphous fedratinib diHCl
[2]
  solid form by XRPD after slurry: determined to be Form A of fedratinib diHCl

— US11306062B2, “Forms of fedratinib dihydrochloride” (Johnson Matthey Public Limited Company, priority 2019, dated 2022)
